Here are results for 39 compounds from patent publication US20250099448A1, “HETEROCYCLIC COMPOUNDS” (Hoffmann-La Roche Inc., priority 2022, published 2025).

Each structure is given as a SMILES string.

The target in this assay is T1, MAGL protein (Homo sapiens, UniProt Q99685).
T1 sequence (Q99685 1-303): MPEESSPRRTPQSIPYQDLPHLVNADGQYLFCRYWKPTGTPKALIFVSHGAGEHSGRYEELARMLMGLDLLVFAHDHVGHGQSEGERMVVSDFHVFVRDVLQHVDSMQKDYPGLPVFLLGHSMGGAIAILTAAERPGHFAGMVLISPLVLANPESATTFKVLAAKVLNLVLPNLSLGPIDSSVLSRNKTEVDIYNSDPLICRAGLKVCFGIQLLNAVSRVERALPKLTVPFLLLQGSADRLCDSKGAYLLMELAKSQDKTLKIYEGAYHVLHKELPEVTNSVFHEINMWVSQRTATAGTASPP
As to the kind of experiment: 2-AG assay: MAGL inhibitory activity by hydrolysis of 2-arachidonoylglycerol to arachidonic acid, followed by mass spectrometry. Conditions: 8 μM 2-arachidonoylglycerol, 15 min preincubation, 30 min reaction at RT, RapidFire MS readout. Format: biochemical. In outline:
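Activity was measured by RapidFire SPE–triple-quad MS as the ratio of arachidonic acid to d8-arachidonic acid after 2-AG hydrolysis (8 μM substrate, 30 min, RT, acetonitrile quench). Compounds, tested from 12.5 μM down to […], were first preincubated 15 min with MAGL in TRIS/EDTA/Tween-20 buffer containing 2.5% DMSO.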

The IC50 is the concentration at which inhibition is half-maximal. A high value points to lower potency. `O=C(N1CC2(CC(c3nnc(C4CC4)[nH]3)C2)C1)N1CC2(C1)CN(c1cncc(F)c1)C2` [compound 936] registered an IC50 of 138 nM.

`CS(=O)(=O)c1ccc(COC2CCN(C(=O)N3CC4(CC(c5n[nH]c(C6CC6)n5)C4)C3)CC2)c(Cl)c1` [Example 925, [4-(2-chloro-4-mesyl-benzyl)oxypiperidino]-[6-(5-cyclopropyl-1H-1,2,4-triazol-3-yl)-2-azaspiro[3.3]heptan-2-yl]methanone] returned an IC50 of 79.2 nM.

Compound `O=C(N1CC2(CCN(c3ccc(Cl)cc3F)CC2)C1)N1CC2(CC(c3nnc(C4CC4)[nH]3)C2)C1` [compound 283] returned an IC50 of 0.88 nM.

Consider `O=C(N1CCC(CNS(=O)(=O)c2ccc(OC(F)(F)F)cc2)CC1)N1CC2(CC(c3nnc(C4CC4)[nH]3)C2)C1` [compound 251], for which half-maximal inhibition (IC50) was put at 23.9 nM.

On to `O=C(N1CC2(CC(c3nc(C4CC4)n[nH]3)C2)C1)N1CC2(CN(Cc3cc(C4CCC4)[nH]n3)C2)C1` [compound 614], for which the IC50 is 5.49 nM. Against the preceding compound, the IC50 is about 4.4-fold lower.

In turn, `O=C(N1CC2(CC(Cc3ccc(C(F)(F)F)cc3F)C2)C1)N1CC2(CC(c3nc(C4CC(F)(F)C4)n[nH]3)C2)C1` [compound 467] returned an IC50 of 0.33 nM.

The compound `CS(=O)(=O)c1ccc(CC2CC3(C2)CN(C(=O)N2CC4(CC(c5nc(C(F)(F)F)n[nH]5)C4)C2)C3)cc1` [compound 791] gave an IC50 of 17.6 nM.

`O=C(N1CC(c2cnc(C3CC4(CCC4)C3)cn2)C1)N1CC2(CC(c3nnc(C4CC4)[nH]3)C2)C1` [compound 286] showed an IC50 of 0.48 nM.

On to `O=C(N1CC2(CC(c3nnc(C4CC4)[nH]3)C2)C1)N1CC2(CN(Cc3cnn4ccccc34)C2)C1` [compound 887], for which the IC50 came out at 5.98 nM.

`O=C(N1CC2(CCC(Oc3ccnc(C(F)(F)F)n3)CC2)C1)N1CC2(CC(c3nnc(C4CC4)[nH]3)C2)C1` [compound 73]: the midpoint of inhibition, the IC50, lay at 3.24 nM.

`O=C(N1CC(c2ccc(C3(C(=O)O)CC3)cc2)C1)N1CC2(CC(c3nnc(C4CC4)[nH]3)C2)C1` [Example 392, 1-[4 [1-[6-(5-cyclopropyl-4H-1,2,4-triazol-3-yl)-2-azaspiro[3.3]heptane-2-carbonyl]azetidin-3-yl]phenyl]cyclopropanecarboxylic Acid]: the IC50 was found to be 6.59 nM. Against the preceding compound, the IC50 is about 2-fold higher.

The compound `N=S(=O)(c1ccc(CC2CC3(C2)CN(C(=O)N2CC4(CC(c5nc(C6COC6)n[nH]5)C4)C2)C3)cc1)C(F)(F)F` (stereo not drawn) [compound 830] returned an IC50 of 36.5 nM. This IC50 is about 5.5-fold higher than that of the compound before.

As to `O=C(N1CC2(CC(c3nc(C4CC4)n[nH]3)C2)C1)N1CC2(CC[C@H](Cc3ccc(S(=O)(=O)C(F)(F)F)cc3)C2)C1` [compound 667], the IC50 was determined as 0.09 nM.

`CS(=O)(=O)c1cc(C(F)(F)F)ccc1CC1CC2(C1)CN(C(=O)N1CC3(CC(c4nnc(C5(O)CC5)[nH]4)C3)C1)C2` [compound 40]: the IC50 is 0.4 nM. This IC50 is about 4.4-fold higher than that of the compound before.

For `O=C(N1CC2(CC(c3nc(C4CC4)n[nH]3)C2)C1)N1CC2(CN(Cc3nnn(CC(F)(F)F)n3)C2)C1` [compound 546], the IC50 was 140 nM.

Turning to `O=C(N1CC2(CC(Oc3ncc(F)cc3Cl)C2)C1)N1CC2(CC(c3nc(C4CC4)n[nH]3)C2)C1` [compound 622], the IC50 worked out at 0.63 nM.

In the case of `O=C(N1CC(NCc2ccc(F)cc2C(F)(F)F)C1)N1CC2(CC(c3nnc(C4CC4)[nH]3)C2)C1` [compound 196], half-maximal inhibition (IC50) required 111 nM.

`N#Cc1ccc(CN2CC3(C2)CN(C(=O)N2CC4(CC(c5nc(C6CC6)n[nH]5)C4)C2)C3)c(C(F)(F)F)c1` [compound 882] showed an IC50 of 1.82 nM.

`CCn1nc(C(F)(F)F)cc1CN1CC2(C1)CN(C(=O)N1CC3(CC(c4nc(C5CC5)n[nH]4)C3)C1)C2` [compound 553]: the midpoint of inhibition, the IC50, lay at 4.55 nM.

The compound `N#Cc1c(OC2CN(C(=O)N3CC4(CC(c5nnc(C6CC6)[nH]5)C4)C3)C2)cccc1C1CC1` [compound 310] had an IC50 of 2.3 nM.

With `O=C(N1CC2(CC(c3ccc(C(F)(F)F)nc3)C2)C1)N1CC2(CC(c3nc(C4CC4)n[nH]3)C2)C1` [compound 805], the IC50 was found to be 4.73 nM.

As for `O=C(N1CC2(CCC(Oc3ccc(C(F)(F)F)nn3)CC2)C1)N1CC2(CC(c3nnc(C4CCC4)[nH]3)C2)C1` [compound 52], half-maximal inhibition (IC50) was put at 18.7 nM. This IC50 lies about 4-fold higher than the previous one.

Take `Cn1cc(C(F)(F)F)c(CC2CC3(C2)CN(C(=O)N2CC4(CC(c5nc(C6CC6)n[nH]5)C4)C2)C3)n1` [compound 479]: the IC50 is 0.18 nM.

In turn, `O=C(N1CC2(CC(Cn3ccc(C4CC4)n3)C2)C1)N1CC2(CC(c3nc(C4CC4)n[nH]3)C2)C1` [compound 822] yielded an IC50 of 0.88 nM. Compared with the last compound, the IC50 is about 4.9-fold higher.

The compound `O=C(N1CCC(NS(=O)(=O)c2ccc(F)cc2)CC1)N1CC2(CC(c3nnc(C4CC4)[nH]3)C2)C1` [compound 249] returned an IC50 of 1300 nM.

As for `Cc1csc(C(=O)N2CCN(C(=O)N3CC4(CC(c5nnc(C6CC6)[nH]5)C4)C3)CC2)c1` [Example 872, [4-[6-(5-cyclopropyl-4H-1,2,4-triazol-3-yl)-2-azaspiro[3.3]heptane-2-carbonyl]piperazino]-(4-methyl-2-thienyl)methanone], the IC50 is 1040 nM.

`Cc1c(CN2CC3(C2)CN(C(=O)N2CC4(CC(c5nc(C6CC6)n[nH]5)C4)C2)C3)cnn1CC(F)(F)F` [compound 640] displayed an IC50 of 43.7 nM.

For the compound `O=C(N1CC(c2cnc(N3CC(C(F)(F)F)C3)nc2)C1)N1CC2(CC(c3nc(C4CC(F)(F)C4)n[nH]3)C2)C1` [compound 978], the IC50 was found to be 2210 nM.

Take `O=C(N1CC2(CC(Cc3cc(C(F)(F)F)n[nH]3)C2)C1)N1CC2(CC(c3nc(C4CC4)n[nH]3)C2)C1` [compound 404]: the IC50 was 0.29 nM.

Turning to `O=C(N1CC2(CC(Cc3cnc(C(F)(F)F)cn3)C2)C1)N1CC2(CC(c3nc(C4(O)CC4)n[nH]3)C2)C1` [compound 4], 4.89 nM corresponded to half-maximal inhibition (IC50).

Regarding `O=C(N1CC(c2ccc(OC(F)(F)F)c(F)c2)C1)N1CC2(CC(c3nnc(C4(O)CC4)[nH]3)C2)C1` [compound 242], 2.23 nM corresponded to half-maximal inhibition (IC50).

As to `O=C(N1CC2(CC(c3ccc(C(F)(F)F)nc3)C2)C1)N1CC2(CC(c3nc(C4(O)CC4)n[nH]3)C2)C1` [compound 829], half-maximal inhibition (IC50) was put at 38.4 nM.

The compound `O=C(N1CC(c2ccc(-c3cc(C(F)(F)F)n[nH]3)cc2)C1)N1CC2(CC(c3nnc(C4CC4)[nH]3)C2)C1` [compound 851] displayed an IC50 of 0.23 nM.

Consider `O=C(N1CC2(CC(c3nnc(C4CC4)[nH]3)C2)C1)N1CC2(C1)CN(c1ncc(C(F)(F)F)cc1F)C2` [compound 678], for which 33.9 nM corresponded to half-maximal inhibition (IC50).

As for `O=C(N1CC2(CC(c3nc(C4CC4)n[nH]3)C2)C1)N1CC2(CN(Cc3nc(C(F)(F)F)cs3)C2)C1` [compound 780], the IC50 was 3.37 nM.

The compound `O=C(N1CC(COc2ccc(F)cc2Cl)C1)N1CC2(CC(c3nnc(C4CC4)[nH]3)C2)C1` [compound 353] displayed an IC50 of 5.12 nM.

`O=C(N1CC2(CC(c3nc(C4CC4)n[nH]3)C2)C1)N1CC2(CN(Cc3nc[nH]c3C(F)(F)F)C2)C1` [compound 795]: the IC50 came out at 33.3 nM.

`O=C(N1CC2(CC(c3nnc(C4CC4)[nH]3)C2)C1)N1CC2(CC[C@H](Oc3cnc(C(F)(F)F)cn3)C2)C1` [compound 90] had an IC50 of 7.88 nM. This IC50 is about 4.2-fold lower than that of the compound before.

Compound `O=C(N1CC(Oc2ccc(C3CC3)cc2F)C1)N1CC2(CC(c3nnc(C4(O)CC4)[nH]3)C2)C1` [compound 313] returned an IC50 of 4.59 nM. This IC50 is about 1.7-fold lower than that of the compound before.
